In ChEMBL document CHEMBL1268944, “The antiplasmodial activity of norcantharidin analogs” (Bioorg Med Chem Lett, 2010):
pIC50: −log10 of the molar value.

Experiments:
[1] = Inhibition of human PP2A
[2] = test system: Plasmodium falciparum; assay: Antiplasmodial activity against chloroquine-sensitive Plasmodium falciparum D6 assessed as inhibition of parasite LDH activity after 72 hrs by malstat reagent method; assay type: functional, organism-based; conditions: D6, 72 h
[3] = test system: Plasmodium falciparum; assay: Antiplasmodial activity against chloroquine-resistant Plasmodium falciparum W2 assessed as inhibition of parasite LDH activity […] after 72 hrs by malstat reagent method; assay type: functional, organism-based; conditions: W2, 72 h
[4] = Inhibition of human PP1
[5] = Solubility of the compound in PP2A assay medium at 40 mM; assay type: physicochemical; conditions: 40000 µM
[6] = Solubility of the compound in PP1 assay medium at 40 mM; assay type: physicochemical; conditions: 40000 µM
[7] = species on record: Homo sapiens; assay: Inhibition of human PP2A at 100 uM
[8] = species on record: Homo sapiens; assay: Inhibition of human PP1 at 100 uM

SMILES	pIC50 [1]	pIC50 [2]	pIC50 [3]	pIC50 [4]	solubility [5]	solubility [6]	inhibition [7] [%]	inhibition [8] [%]
O=C(O)C1C(C(=O)Nc2cccc(I)c2)[C@H]2CC[C@@H]1O2 (some centres undefined)	4.74	3.66	3.55	4.36	–	–	–	–
O=C(O)C1C(C(=O)NCCc2ccccc2)[C@H]2CC[C@@H]1O2 (some centres undefined)	4.54	3.61	3.52	4.48	–	–	–	–
C=CCCNC(=O)C1C(C(=O)O)[C@@H]2CC[C@H]1O2 (some centres undefined)	–	< 3.30	< 3.30	–	Insoluble	Insoluble	–	–
CC(C)C[C@@H](C(=O)O)N1C(=O)C2C(C1=O)[C@H]1CC[C@@H]2O1 (some centres undefined)	–	< 3.30	< 3.30	–	–	–	–	–
CC(C)(C)c1ccccc1NC(=O)C1C(C(=O)O)[C@@H]2CC[C@H]1O2 (some centres undefined)	–	< 3.30	< 3.30	–	–	–	16	9
O=C(O)C1C(C(=O)Nc2ccccc2O)[C@H]2CC[C@@H]1O2 (some centres undefined)	–	3.41	3.42	–	–	–	9.8	33
CC(C)(C)c1ccc(C(C)(C)C)c(NC(=O)C2C(C(=O)O)[C@@H]3CC[C@H]2O3)c1 (some centres undefined)	–	4.40	3.69	–	Insoluble	Insoluble	–	–
CC(C)(CO)N1C(=O)C2C(C1=O)[C@H]1CC[C@@H]2O1 (some centres undefined)	–	< 3.30	< 3.30	–	–	–	–	–
O=C(O)CCCNC(=O)C1C(C(=O)O)[C@@H]2CC[C@H]1O2 (some centres undefined)	5.48	< 3.30	< 3.30	4.82	–	–	–	–
O=C(O)C1C(C(=O)NCCCc2ccccc2)[C@H]2CC[C@@H]1O2 (some centres undefined)	4.60	3.42	3.64	4.60	–	–	–	–
CCCCNC(=O)C1C(C(=O)O)[C@@H]2CC[C@H]1O2 (some centres undefined)	4.62	< 3.30	< 3.30	4.15	–	–	–	–
CC(C)(C)c1cc(NC(=O)C2C(C(=O)O)[C@@H]3CC[C@H]2O3)cc(C(C)(C)C)c1 (some centres undefined)	5.09	4.23	3.75	5.09	–	–	–	–
O=C(O)C1C(C(=O)NCCc2cnc[nH]2)[C@H]2CC[C@@H]1O2 (some centres undefined)	–	3.51	3.57	–	–	–	26	35
O=C(O)C1C(C(=O)Nc2ccccc2)[C@H]2CC[C@@H]1O2 (some centres undefined)	5.11	3.52	3.44	4.62	–	–	–	–
CC(C)(C)c1ccc(NC(=O)C2C(C(=O)O)[C@@H]3CC[C@H]2O3)cc1 (some centres undefined)	4.96	3.39	< 3.30	5.00	–	–	–	–
O=C(O)C1C(C(=O)Nc2ccc(CO)cc2)[C@H]2CC[C@@H]1O2 (some centres undefined)	5.14	3.80	3.79	4.82	–	–	–	–
CCCCCCN1C(=O)C2C(C1=O)[C@H]1CC[C@@H]2O1 (some centres undefined)	–	3.76	4.05	–	–	–	–	–
O=C1C2C(C(=O)N1CCCCCCO)[C@H]1CC[C@@H]2O1 (some centres undefined)	–	< 3.30	< 3.30	–	–	–	–	–
O=C(O)C1C(C(=O)Nc2ccc(I)cc2)[C@H]2CC[C@@H]1O2 (some centres undefined)	4.85	3.64	3.61	4.48	–	–	–	–
CCCCN1C(=O)C2C(C1=O)[C@H]1CC[C@@H]2O1 (some centres undefined)	–	5.05	4.90	–	–	–	–	–
O=C(O)C1C(C(=O)N2CCSCC2)[C@H]2CC[C@@H]1O2 (some centres undefined)	5.29	3.60	3.69	5.49	–	–	–	–
O=C1C2C(C(=O)N1CCN1CCOCC1)[C@H]1CC[C@@H]2O1 (some centres undefined)	–	< 3.30	< 3.30	–	–	–	–	–
O=C(O)C1C(C(=O)Nc2cccc(CO)c2)[C@H]2CC[C@@H]1O2 (some centres undefined)	5.15	3.36	3.41	4.82	–	–	–	–
O=C(O)C1C(C(=O)Nc2ccc(O)cc2)[C@H]2CC[C@@H]1O2 (some centres undefined)	5.11	3.58	3.48	4.55	–	–	–	–
CCCCCCNC(=O)C1C(C(=O)O)[C@@H]2CC[C@H]1O2 (some centres undefined)	4.89	< 3.30	3.41	4.46	–	–	–	–
Nc1ccccc1CN1C(=O)C2C(C1=O)[C@H]1CC[C@@H]2O1 (some centres undefined)	–	< 3.30	< 3.30	–	–	–	–	–
CCCCCCOc1ccc(NC(=O)C2C(C(=O)O)[C@@H]3CC[C@H]2O3)cc1 (some centres undefined)	4.70	3.89	4.15	4.22	–	–	–	–
COc1ccc(NC(=O)C2C(C(=O)O)[C@@H]3CC[C@H]2O3)cc1 (some centres undefined)	4.80	3.30	< 3.30	4.80	–	–	–	–
COc1ccc(CNC(=O)C2C(C(=O)O)[C@@H]3CC[C@H]2O3)cc1 (some centres undefined)	4.89	< 3.30	< 3.30	4.46	–	–	–	–
CCCCCCCCN1C(=O)C2C(C1=O)[C@H]1CC[C@@H]2O1 (some centres undefined)	–	3.65	3.60	–	–	–	–	–
